Source: paper PMC11076738, “A rapid and simple non-radioactive assay for measuring uptake by solute carrier transporters” (Frontiers in Pharmacology, 2024)

Legend:
Type in all cases: cell-based
BMP reporter gene = BMP reporter gene assay (Id1-Luc) in HEK293T cells; settings: HEK293T cells with Id1-Luc reporter; 3 μM, 12 h
Protocol: HEK293T cells transfected with Id1-Luc reporter construct were seeded into a 96-well plate (190 μL/well of 3,000 cells/mL)) and then treated with 3 μM JH7 for 12 h. FK506 and DMSO were used as positive and negative controls, respectively. Cells were removed 100 μL DMEM and added in 40 μL Bright-Glo™ Luciferase reagent (per well) and placed on a plate-shaker for 10 min. Bright-Glo™ Luciferase Assay was performed with Ensight plate reader.

NTCP = molecular target: T1, NTCP (Homo sapiens, UniProt Q14973); test: TCA-d4 uptake assay (LC-MS/MS) in HepG2 NTCP cells
T1 construct: His-tag; expressed in transfected cells
T1 sequence (Q14973 1-349): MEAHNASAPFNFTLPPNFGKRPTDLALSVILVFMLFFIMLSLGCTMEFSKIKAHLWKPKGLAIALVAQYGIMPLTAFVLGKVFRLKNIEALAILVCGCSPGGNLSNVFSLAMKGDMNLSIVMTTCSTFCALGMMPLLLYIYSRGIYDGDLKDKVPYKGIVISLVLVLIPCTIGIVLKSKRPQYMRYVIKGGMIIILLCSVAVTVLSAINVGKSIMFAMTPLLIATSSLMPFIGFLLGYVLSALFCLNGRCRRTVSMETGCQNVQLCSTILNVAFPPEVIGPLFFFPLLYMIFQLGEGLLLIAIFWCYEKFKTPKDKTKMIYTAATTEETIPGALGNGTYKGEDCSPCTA
Protocol: HepG2 NTCP cells were seeded into 12-well plates at a density of 2×10^5/well. After a 48 h incubation, cells were carefully washed with uptake buffer (10 mM HEPES, 100 mM NaCl, 2 mM KCl, 1 mM MgCl2, 1 mM CaCl2, pH 7.4) twice and incubated in 0.5 mL of uptake buffer for 15 min at 37 °C. […] Cells were then allowed to take up 5 μM of TCA-d4 at 37 °C for another 15 min. After incubation, cells were washed with uptake buffer three times and lysed with 200 μL of ethanol. The cell lysate was transferred to a new tube and the supernatant was collected by centrifugation at 12,000 rpm for 10 min at 4°C. TCA-d4 uptake was quantified with LC-MS/MS.
Prepared samples were separated on an Agilent 1290 II system (CA, United States) equipped with an XSelect HSS T3 C18 reverse phase column (2.1 × 150 mm, 3.5 μm). […] To separate TCA-d4, the mobile phase consisted of solution A (5 mM ammonium formate) and solution B (methanol). […]
Targeted analytes were monitored in a negative multiple-reaction monitoring (MRM) mode on an Agilent 6495C triple quadrupole LS/MS system (CA, United States). […] Leucine-d3 and TCA-d4 were monitored in negative ion mode with MRM ion pairs at 135.1 > 89.2 (collision energy: 14 eV) and 518.0 > 124.0 (collision energy: 65 eV), respectively. […]

LAT1 [1] = molecular target: T2, LAT1 (Homo sapiens, UniProt Q01650); test: 3H-leucine uptake assay in LS174T cells; settings: read-out: IC50, inhibition of 3H-leucine uptake, radioactive method, mean ± s.d., n = 3
T2 construct: endogenous in cells; host or cells: LS174T (wild type)
T2 sequence (Q01650 whole entry): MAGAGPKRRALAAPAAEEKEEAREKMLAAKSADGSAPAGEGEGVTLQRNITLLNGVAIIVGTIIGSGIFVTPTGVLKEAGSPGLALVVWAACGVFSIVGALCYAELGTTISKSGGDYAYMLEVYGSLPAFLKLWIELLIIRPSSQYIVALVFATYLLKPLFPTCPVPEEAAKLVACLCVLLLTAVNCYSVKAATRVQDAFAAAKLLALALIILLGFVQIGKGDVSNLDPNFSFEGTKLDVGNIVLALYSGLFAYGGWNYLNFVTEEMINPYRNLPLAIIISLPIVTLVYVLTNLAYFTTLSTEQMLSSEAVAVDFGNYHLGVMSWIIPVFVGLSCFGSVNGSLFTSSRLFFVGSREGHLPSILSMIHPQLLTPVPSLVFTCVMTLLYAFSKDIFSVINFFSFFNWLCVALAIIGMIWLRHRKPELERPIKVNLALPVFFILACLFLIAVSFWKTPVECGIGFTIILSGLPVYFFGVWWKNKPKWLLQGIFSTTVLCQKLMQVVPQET
T2 sequence (P08195 102-630 partner): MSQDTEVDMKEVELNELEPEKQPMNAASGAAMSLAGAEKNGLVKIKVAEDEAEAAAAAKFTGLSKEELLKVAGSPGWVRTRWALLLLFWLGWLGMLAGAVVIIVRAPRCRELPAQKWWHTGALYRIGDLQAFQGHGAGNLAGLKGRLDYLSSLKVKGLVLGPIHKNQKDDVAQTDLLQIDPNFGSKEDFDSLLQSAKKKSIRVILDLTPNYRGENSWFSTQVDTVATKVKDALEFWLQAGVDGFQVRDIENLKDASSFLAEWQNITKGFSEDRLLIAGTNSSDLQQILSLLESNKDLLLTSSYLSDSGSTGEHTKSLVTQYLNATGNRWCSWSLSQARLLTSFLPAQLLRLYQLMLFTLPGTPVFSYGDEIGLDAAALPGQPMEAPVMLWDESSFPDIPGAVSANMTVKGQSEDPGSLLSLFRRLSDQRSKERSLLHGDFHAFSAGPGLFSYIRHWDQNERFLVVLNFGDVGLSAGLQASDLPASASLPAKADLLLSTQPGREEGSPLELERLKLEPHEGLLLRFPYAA
Protocol: The inhibitory activity of JPH203 on LAT1 was analyzed by measuring the cell uptake of ^3H-leucine as previously described with minor modifications ([Oda et al., 2010]). Similar to leucine-d3 uptake assay, LS174T cells were washed twice and incubated in Na^+-free uptake medium (10 mM Tris-HCl, 150 mM KCl, 5 mM MgCl2, 1 mM EGTA, pH 7.4) for 15 min. Cells were added with JPH203 or DMSO and incubated for another 15 min before adding ^3H-leucine. After 15 min incubation, cells were washed three times and lysed with 0.2 N NaOH plus 0.2% SDS. The cell lysate was transferred to a new tube containing 1 mL of optiphase supermix. ^3H-leucine uptake was quantified with a scintillation counter.

LAT1 [2] = molecular target: T2, LAT1; test: leucine-d3 uptake assay (LC-MS/MS) in LS174T cells; settings: 5 μM leucine-d3, 15 min uptake, mean ± s.d., n = 3, read-out: IC50, inhibition of leucine-d3 uptake
Protocol: LS174T cells were seeded into 12-well plates at a density of 1×10^6/well. After a 48 h incubation, cells were carefully washed with prewarmed Na^+-free uptake buffer (10 mM Tris-HCl, 150 mM KCl, 5 mM MgCl2, 1 mM EGTA, pH 7.4) twice and incubated in 0.5 mL of Na^+-free uptake buffer at 37 °C for 15 min. Cells were washed with Na^+-free uptake buffer once again and incubated with different concentrations of JPH203 or DMSO at 37 °C for 15 min. Cells were then allowed to take up 5 μM of leucine-d3 at 37 °C for another 15 min. After incubation, cells were washed with Na^+-free uptake buffer three times and lysed with 200 μL of acetonitrile. The cell lysate was transferred to a new tube and the supernatant was collected by centrifugation at 12,000 rpm for 10 min at 4°C. Leucine-d3 uptake was quantified with LC-MS/MS.
Prepared samples were separated on an Agilent 1290 II system (CA, United States) equipped with an XSelect HSS T3 C18 reverse phase column (2.1 × 150 mm, 3.5 μm). […]
Targeted analytes were monitored in a negative multiple-reaction monitoring (MRM) mode on an Agilent 6495C triple quadrupole […] system (CA, United States). […] Leucine-d3 and TCA-d4 were monitored in negative ion mode with MRM ion pairs at 135.1 > 89.2 (collision energy: 14 eV) and 518.0 > 124.0 (collision energy: 65 eV), respectively. […]

`CCCC[C@H]1C(=O)N[C@@H](Cc2ccc(F)cc2)C(=O)N(C)CC/C=C/C(=O)OCC(C)(C)C(=O)C(=O)N2CCCC[C@H]2C(=O)O[C@H](CCc2ccc(OC)c(OC)c2)c2cccc(c2)OCC(=O)N(C)CC(=O)N[C@@H](Cc2cccs2)C(=O)N1C` [JH7] was tested, and the “activation of BMP reporter gene” value (BMP reporter gene) was “did not activate”, the IC50 (NTCP; 5 μM TCA-d4, 15 min uptake, mean ± s.d., n = 3, read-out: IC50, inhibition of TCA-d4 uptake) was 0.0493 ± 0.0008 µM and the “TCA-d4 uptake (% of control)” value (NTCP; rapafucins at a final concentration of 2 μM) was 19.35 % of control.

With `Nc1cc(COc2c(Cl)cc(C[C@H](N)C(=O)O)cc2Cl)c2oc(-c3ccccc3)nc2c1` [JPH203] the IC50 (LAT1 [1]) was 0.96 ± 0.09 µM and the IC50 (LAT1 [2]) was 1.11 ± 0.21 µM.
